Source: PMC9026008 (ACS Omega, 2022)
Positions count from the first letter of the chain named. Values belong to the molecule of their own block, whether it stands above or below them.

Key:
CGI-58 = target: T1, CGI-58 (Homo sapiens, UniProt Q8WTS1, S237E/W19A/W23A/W27A); assay: intrinsic tryptophan fluorescence quenching, […] protein, […] °C; format: binding
T1 sequence (Q8WTS1 1-349 W19A/W23A/W27A/S237E): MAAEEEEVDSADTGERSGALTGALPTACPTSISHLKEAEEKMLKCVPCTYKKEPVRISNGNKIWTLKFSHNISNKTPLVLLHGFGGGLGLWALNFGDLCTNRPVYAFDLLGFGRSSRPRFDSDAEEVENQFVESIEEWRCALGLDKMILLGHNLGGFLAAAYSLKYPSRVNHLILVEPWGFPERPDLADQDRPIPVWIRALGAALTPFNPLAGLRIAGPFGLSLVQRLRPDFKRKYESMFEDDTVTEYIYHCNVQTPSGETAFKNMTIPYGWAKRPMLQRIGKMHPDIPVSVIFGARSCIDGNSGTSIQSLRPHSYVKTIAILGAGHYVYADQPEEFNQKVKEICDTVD

SEC = target: the molecule itself; assay: SEC

Kd (CGI-58): 2300 ± 300 nM
Molecule: CCCCCCCC/C=C\CCCCCCCC(=O)SCCNC(=O)CCNC(=O)[C@H](O)C(C)(C)COP(=O)(O)OP(=O)(O)OC[C@H]1O[C@@H](n2cnc3c(N)ncnc32)[C@H](O)[C@@H]1OP(=O)(O)O [oleoyl-CoA]

B1: human CGI-58 (Comparative Gene Identification-58) wild-type protein (natural protein, UniProt Q8WTS1 1-349, looked up)
chain: T1 sequence (Q8WTS1 1-349 W19A/W23A/W27A/S237E) with A19W, A23W, A27W, E237S
binding result (SEC): binds
